The source of these data is article PMC4032177 (Journal of medicinal chemistry, 2013).

Structures are written as SMILES.

The target of one test is MLK3 (Homo sapiens, UniProt Q16584). Put plainly: Radiometric MLK3 kinase inhibition assay. In kind it is biochemical.
The next test has as its target BRAF (Homo sapiens, UniProt P15056). Put plainly: Kinase specificity profiling. In kind it is binding.
Another test addresses AKT1 (Homo sapiens, UniProt P31749). Put plainly: Kinase specificity profiling. In kind it is binding.
The target in the next test is CDK11 (Homo sapiens, UniProt Q9BWU1). Description: DiscoverRx ScanMax kinome binding scan. As to conditions: read-out: CDK11 % inhibition (ScanMax).
Another test deals with ERK1 (Homo sapiens, UniProt P27361). Description: Kinase specificity profiling. In kind it is binding.
Another test has as its target AKT3 (Homo sapiens, UniProt Q9Y243). Description: Kinase specificity profiling. In kind it is binding.
For a further test, the target named is AKT2 (Homo sapiens, UniProt P31751). Description: Kinase specificity profiling. In kind it is binding.
In test [1] the target is T1, DLK (Homo sapiens, UniProt Q12852).
T1 sequence (Q12852 1-859): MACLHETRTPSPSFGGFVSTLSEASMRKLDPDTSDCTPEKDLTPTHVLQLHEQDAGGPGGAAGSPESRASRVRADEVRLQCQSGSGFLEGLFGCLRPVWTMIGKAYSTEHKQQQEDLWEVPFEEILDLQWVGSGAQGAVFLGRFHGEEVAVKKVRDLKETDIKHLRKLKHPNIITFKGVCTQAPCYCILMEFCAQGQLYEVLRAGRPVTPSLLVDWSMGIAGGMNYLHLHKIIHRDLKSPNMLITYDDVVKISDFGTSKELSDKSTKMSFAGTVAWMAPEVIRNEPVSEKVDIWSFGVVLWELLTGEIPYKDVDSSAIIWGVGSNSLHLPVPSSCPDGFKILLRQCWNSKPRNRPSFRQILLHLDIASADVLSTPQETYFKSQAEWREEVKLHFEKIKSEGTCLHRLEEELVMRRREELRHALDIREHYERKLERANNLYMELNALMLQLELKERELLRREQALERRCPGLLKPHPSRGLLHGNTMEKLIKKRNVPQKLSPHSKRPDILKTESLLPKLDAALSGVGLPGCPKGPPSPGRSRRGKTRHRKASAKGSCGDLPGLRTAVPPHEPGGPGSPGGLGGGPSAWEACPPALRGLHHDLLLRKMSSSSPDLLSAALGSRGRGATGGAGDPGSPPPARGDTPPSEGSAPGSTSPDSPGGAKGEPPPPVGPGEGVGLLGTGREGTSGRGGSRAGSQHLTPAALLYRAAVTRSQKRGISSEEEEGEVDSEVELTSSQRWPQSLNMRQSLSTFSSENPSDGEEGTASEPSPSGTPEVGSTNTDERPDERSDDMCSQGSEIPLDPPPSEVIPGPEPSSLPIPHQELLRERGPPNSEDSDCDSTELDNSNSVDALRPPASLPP
Put plainly: DLK kinase inhibition. In kind it is biochemical.

Test [2] has as its system phosphorylated JNK (pJNK) in brain. Description: Inhibition of JNK phosphorylation in HIV-Tat treated mice. In kind it is in vivo, C57BL/6 mice. As to conditions: 10 mg/kg i.p. every twelve hours.
The target in test [3] is T1, DLK. Description: DiscoverRx ScanMax kinome binding scan.
The target in the next test is EGFR (Homo sapiens, UniProt P00533). Put plainly: Kinase specificity profiling. In kind it is binding.
Another test addresses ERK2 (Homo sapiens, UniProt P28482). Put plainly: Kinase specificity profiling. In kind it is binding.
The target of a further test is LRRK2 (Homo sapiens, UniProt Q5S007). Put plainly: DiscoverRx ScanMax kinome binding scan. The following applies: read-out: LRRK2 % inhibition of binding (ScanMax), 1 μM.

Sequence of MLK3 (Q16584 whole entry): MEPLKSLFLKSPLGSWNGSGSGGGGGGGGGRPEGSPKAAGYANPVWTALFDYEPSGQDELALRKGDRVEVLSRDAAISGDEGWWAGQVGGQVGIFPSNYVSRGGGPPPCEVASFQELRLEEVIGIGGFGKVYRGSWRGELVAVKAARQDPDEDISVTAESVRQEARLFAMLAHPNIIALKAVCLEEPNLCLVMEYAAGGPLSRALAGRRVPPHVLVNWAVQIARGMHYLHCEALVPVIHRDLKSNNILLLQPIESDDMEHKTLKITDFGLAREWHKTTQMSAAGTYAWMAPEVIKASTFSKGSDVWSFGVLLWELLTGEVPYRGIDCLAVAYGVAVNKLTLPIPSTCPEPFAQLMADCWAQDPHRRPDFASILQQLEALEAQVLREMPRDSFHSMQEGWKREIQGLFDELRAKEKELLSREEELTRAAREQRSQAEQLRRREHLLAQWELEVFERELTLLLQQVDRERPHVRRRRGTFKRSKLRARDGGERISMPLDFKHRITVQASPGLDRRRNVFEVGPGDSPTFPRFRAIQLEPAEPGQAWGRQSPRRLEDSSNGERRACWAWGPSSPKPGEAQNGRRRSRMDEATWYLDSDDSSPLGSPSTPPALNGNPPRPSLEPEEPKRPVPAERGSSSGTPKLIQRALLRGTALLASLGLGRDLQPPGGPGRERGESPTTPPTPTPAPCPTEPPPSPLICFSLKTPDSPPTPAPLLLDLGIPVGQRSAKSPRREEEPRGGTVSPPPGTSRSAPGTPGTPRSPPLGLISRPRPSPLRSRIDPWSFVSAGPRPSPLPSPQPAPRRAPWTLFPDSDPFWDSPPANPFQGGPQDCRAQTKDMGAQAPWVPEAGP
Sequence of BRAF (P15056 whole entry): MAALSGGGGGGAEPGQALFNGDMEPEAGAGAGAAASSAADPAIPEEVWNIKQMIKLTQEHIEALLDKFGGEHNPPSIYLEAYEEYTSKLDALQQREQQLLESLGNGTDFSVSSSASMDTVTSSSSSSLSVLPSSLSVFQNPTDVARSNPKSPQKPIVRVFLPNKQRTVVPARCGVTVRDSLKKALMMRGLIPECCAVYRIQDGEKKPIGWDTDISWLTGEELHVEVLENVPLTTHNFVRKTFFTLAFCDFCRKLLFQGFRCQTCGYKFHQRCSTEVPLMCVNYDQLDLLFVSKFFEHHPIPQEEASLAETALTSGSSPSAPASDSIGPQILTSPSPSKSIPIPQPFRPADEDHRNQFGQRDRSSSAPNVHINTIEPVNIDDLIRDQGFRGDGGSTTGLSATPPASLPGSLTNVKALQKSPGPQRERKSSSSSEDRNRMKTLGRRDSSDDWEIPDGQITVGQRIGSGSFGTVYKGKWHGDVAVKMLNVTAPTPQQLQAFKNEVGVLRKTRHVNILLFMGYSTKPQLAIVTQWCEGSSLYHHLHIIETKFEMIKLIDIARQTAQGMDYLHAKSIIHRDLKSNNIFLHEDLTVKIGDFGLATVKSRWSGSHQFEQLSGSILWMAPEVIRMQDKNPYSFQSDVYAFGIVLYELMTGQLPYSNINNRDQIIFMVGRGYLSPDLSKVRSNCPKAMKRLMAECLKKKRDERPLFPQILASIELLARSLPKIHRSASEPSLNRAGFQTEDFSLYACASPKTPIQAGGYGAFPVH
Sequence of AKT3 (Q9Y243 whole entry): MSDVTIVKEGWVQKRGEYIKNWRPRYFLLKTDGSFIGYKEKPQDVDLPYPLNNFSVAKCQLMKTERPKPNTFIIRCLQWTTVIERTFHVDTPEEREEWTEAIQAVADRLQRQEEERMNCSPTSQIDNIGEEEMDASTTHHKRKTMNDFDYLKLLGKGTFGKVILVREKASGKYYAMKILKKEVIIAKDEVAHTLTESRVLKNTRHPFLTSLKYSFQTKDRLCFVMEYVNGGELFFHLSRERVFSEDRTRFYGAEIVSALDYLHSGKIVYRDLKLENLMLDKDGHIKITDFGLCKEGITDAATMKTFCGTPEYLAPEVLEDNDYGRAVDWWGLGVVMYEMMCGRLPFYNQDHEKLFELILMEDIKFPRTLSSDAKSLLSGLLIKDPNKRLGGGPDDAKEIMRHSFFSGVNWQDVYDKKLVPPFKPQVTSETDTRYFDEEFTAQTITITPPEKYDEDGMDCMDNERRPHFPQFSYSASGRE
Sequence of AKT1 (P31749 whole entry): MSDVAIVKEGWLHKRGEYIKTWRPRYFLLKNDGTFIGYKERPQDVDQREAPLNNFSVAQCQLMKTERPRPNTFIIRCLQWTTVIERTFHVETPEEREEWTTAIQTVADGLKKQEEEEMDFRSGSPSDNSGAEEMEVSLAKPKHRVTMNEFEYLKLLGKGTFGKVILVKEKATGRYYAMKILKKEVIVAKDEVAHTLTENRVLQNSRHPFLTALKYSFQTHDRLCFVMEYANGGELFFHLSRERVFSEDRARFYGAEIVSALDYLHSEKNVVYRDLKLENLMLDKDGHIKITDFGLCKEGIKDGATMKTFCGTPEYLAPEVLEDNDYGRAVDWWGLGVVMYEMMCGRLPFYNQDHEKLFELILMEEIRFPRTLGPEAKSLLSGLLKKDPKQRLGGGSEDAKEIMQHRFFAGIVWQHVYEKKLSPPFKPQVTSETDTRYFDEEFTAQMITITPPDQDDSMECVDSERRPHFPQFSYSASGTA
Sequence of CDK11 (Q9BWU1 whole entry): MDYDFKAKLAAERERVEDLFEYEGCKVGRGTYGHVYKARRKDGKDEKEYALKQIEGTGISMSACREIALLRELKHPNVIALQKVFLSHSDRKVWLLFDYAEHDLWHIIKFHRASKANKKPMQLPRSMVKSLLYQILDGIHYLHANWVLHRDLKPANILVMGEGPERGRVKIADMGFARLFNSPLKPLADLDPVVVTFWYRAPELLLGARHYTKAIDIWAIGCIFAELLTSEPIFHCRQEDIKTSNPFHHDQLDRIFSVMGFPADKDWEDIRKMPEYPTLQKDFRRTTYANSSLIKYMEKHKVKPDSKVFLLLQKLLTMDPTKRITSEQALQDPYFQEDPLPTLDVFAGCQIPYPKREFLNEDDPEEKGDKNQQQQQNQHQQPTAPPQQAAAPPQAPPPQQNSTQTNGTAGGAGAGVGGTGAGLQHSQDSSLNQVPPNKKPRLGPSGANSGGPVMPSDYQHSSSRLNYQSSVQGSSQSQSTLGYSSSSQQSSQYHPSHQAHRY
Sequence of EGFR (P00533 25-1210): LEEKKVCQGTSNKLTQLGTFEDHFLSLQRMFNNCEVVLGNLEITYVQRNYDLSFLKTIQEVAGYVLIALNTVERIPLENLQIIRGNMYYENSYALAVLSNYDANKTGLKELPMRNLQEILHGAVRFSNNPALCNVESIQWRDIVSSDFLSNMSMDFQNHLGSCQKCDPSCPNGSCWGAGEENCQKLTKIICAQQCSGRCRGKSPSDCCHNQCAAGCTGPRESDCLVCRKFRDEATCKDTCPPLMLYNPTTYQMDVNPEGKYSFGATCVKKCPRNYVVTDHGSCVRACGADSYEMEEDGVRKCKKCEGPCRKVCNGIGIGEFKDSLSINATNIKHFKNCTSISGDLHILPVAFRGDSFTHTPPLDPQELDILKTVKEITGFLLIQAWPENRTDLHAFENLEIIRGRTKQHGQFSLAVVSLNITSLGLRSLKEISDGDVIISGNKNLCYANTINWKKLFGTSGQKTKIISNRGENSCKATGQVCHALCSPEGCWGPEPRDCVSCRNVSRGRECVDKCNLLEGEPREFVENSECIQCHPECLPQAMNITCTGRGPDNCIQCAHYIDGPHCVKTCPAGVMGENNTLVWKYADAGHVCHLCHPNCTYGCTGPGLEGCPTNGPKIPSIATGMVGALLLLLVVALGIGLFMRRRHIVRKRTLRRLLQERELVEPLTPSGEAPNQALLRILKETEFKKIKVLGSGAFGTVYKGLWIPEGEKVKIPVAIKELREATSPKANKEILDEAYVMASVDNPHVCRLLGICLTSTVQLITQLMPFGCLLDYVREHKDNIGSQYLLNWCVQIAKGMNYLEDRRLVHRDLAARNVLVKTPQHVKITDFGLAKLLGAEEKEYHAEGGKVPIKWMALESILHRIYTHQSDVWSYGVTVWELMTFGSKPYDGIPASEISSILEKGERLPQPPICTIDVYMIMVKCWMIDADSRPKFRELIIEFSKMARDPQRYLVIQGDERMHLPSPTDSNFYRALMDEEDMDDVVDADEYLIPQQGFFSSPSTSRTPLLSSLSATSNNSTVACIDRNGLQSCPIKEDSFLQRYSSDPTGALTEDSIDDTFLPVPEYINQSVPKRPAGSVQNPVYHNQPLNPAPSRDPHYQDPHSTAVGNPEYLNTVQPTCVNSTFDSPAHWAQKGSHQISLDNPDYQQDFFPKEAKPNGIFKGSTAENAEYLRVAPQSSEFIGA
Sequence of AKT2 (P31751 whole entry): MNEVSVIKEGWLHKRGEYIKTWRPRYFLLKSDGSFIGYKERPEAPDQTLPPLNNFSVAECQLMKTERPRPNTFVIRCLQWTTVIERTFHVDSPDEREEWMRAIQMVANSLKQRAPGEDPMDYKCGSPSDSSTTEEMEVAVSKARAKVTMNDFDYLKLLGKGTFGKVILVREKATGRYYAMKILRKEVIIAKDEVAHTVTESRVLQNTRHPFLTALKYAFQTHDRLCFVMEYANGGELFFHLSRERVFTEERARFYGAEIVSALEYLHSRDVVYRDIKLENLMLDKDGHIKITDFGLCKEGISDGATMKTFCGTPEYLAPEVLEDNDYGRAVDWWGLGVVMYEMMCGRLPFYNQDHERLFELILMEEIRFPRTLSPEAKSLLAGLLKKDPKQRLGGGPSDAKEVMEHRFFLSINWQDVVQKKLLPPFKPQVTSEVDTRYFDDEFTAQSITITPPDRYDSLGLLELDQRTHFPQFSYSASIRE

As for `CN1CCN(Cc2ccc(-c3cnc4[nH]cc(-c5ccc6[nH]ccc6c5)c4c3)cc2)CC1` [Compound 1, 3-(1H-Indol-5-yl)-5-(4-((4-methylpiperazin-1-yl)methyl)phenyl)-1H-pyrrolo[2,3-b]pyridine], the inhibitory constant (Ki) at MLK3 was roughly 10 nM. For the same compound, the “Activity against BRAF” value on BRAF was “essentially inactive”. The “Activity against AKT1” value at AKT1 is “essentially inactive”. Besides, the inhibition at 1 µM on CDK11 was greater than 90%. Further, the “Activity against ERK1” value at ERK1 is “essentially inactive”. For the same compound, on AKT3, the “Activity against AKT3” value is “essentially inactive”. Also, the “Activity against AKT2” value on AKT2 is “essentially inactive”. On DLK [1], half-maximal inhibition (IC50) was put at 150 nM. Besides, in test [2], the “pJNK levels in saline-treated animals” value is on record as “no effect”. At DLK [3], the dissociation constant Kd came out at 70 nM. For the same compound, the “Activity against EGFR” value at EGFR is “essentially inactive”. Further, the “Activity against ERK2” value at ERK2 is “essentially inactive”.

Turning to `CCSCc1ccc2c(c1)c1c3c(c4c5cc(CSCC)ccc5n5c4c1n2[C@H]1C[C@](O)(C(=O)OC)[C@]5(C)O1)CNC3=O` [Compound 2, (9S,10R,12R)-9,12-Epoxy-1H-diindolo[1,2,3-fg:3′,2′,1′-kl]pyrrolo[3,4-i][1,6]benzodiazocine-10-carboxylic acid, 5,16-bis[(ethylthio)methyl]-2,3,9,10,11,12-hexahydro-10-hydroxy-9-methyl-1-oxo methyl ester], the inhibition at 1 µM at LRRK2 is greater than 99%.

At MLK3, `COc1cc(-c2cnc3[nH]c(=O)n(-c4ccc5[nH]ccc5c4)c3n2)cc(OC)c1OC` [Compound 7, 1-(1H-Indol-5-yl)-6-(3,4,5-trimethoxyphenyl)-1H-imidazo[4,5-b]pyrazin-2(3H)-one] returned an IC50 of 40 to 120 nM.
